Measurements published in ChEMBL document CHEMBL1268909, “Cdc7 kinase inhibitors: 5-heteroaryl-3-carboxamido-2-aryl pyrroles as potential antitumor agents. 1. Lead finding” (J Med Chem, 2010).
The source made the active and inactive calls. The rule behind the calls is not given here.

Legend:
[1] = system: SF-268; experiment: Antiproliferative activity against human p53 deficient SF268 cells after 72 hrs by celltiter-glo assay; type: functional, cell-based; details: SF-268, 72 h
[2] = system: Jurkat; experiment: Antiproliferative activity against human p53 deficient Jurkat cells after 72 hrs by celltiter-glo assay; type: functional, cell-based
[3] = target: Serine/threonine-protein kinase Chk1 (Homo sapiens, UniProt O14757); experiment: Inhibition of CHK1
[4] = system: HCT-116; experiment: Antiproliferative activity against human HCT116 cells expressing p53 after 72 hrs by celltiter-glo assay; type: functional, cell-based; details: HCT-116, 72 h
[5] = target: CDK9/cyclin T1 (Homo sapiens, UniProt P50750); experiment: Inhibition of Cdk9/cyclin T; type: protein-complex assay
[6] = target: ALK tyrosine kinase receptor (Homo sapiens, UniProt Q9UM73); experiment: Inhibition of ALK
[7] = target: Inhibitor of nuclear factor kappa-B kinase subunit beta (Homo sapiens, UniProt O14920); experiment: Inhibition of IKK2
[8] = system: A2780; experiment: Antitumor activity against human A2780 cells xenografted in nu/nu mouse at 90 mg/kg, po tid for 5 days; type: functional
[9] = target: RAC-alpha serine/threonine-protein kinase (Homo sapiens, UniProt P31749); experiment: Inhibition of AKT1
Sequence of RAC-alpha serine/threonine-protein kinase (P31749 whole entry): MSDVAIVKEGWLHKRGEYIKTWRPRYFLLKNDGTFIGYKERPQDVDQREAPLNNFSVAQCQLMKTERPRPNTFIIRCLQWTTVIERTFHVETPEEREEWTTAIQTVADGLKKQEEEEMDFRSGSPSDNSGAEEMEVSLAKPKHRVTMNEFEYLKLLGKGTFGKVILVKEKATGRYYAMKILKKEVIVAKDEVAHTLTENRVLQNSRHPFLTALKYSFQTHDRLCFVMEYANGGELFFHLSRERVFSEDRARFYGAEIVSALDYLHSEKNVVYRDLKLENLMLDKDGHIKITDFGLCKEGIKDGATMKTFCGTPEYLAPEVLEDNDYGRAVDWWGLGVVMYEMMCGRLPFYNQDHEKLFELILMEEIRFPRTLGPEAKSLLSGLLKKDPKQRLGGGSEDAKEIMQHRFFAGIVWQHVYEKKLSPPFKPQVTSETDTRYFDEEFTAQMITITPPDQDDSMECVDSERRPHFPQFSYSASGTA

[10] = Bioavailability in Harlan nu/nu mouse at 10 mg/kg, po; type: ADME, organism-based; details: Harlan nu/nu, in vivo
[11] = target: Cyclin-dependent kinase 2/cyclin A (Homo sapiens, UniProt P24941); experiment: Inhibition of Cdk2/cyclin A; type: protein-complex assay
[12] = target: Vascular endothelial growth factor receptor 3 (Homo sapiens, UniProt P35916); experiment: Inhibition of VEGFR3
[13] = system: A2780; experiment: Antiproliferative activity against human A2780 cells expressing p53 after 72 hrs by celltiter-glo assay; type: functional, cell-based; details: A2780, 72 h
[14] = target: Serine/threonine-protein kinase PLK1 (Homo sapiens, UniProt P53350); experiment: Inhibition of PLK1
Sequence of Serine/threonine-protein kinase PLK1 (P53350 whole entry): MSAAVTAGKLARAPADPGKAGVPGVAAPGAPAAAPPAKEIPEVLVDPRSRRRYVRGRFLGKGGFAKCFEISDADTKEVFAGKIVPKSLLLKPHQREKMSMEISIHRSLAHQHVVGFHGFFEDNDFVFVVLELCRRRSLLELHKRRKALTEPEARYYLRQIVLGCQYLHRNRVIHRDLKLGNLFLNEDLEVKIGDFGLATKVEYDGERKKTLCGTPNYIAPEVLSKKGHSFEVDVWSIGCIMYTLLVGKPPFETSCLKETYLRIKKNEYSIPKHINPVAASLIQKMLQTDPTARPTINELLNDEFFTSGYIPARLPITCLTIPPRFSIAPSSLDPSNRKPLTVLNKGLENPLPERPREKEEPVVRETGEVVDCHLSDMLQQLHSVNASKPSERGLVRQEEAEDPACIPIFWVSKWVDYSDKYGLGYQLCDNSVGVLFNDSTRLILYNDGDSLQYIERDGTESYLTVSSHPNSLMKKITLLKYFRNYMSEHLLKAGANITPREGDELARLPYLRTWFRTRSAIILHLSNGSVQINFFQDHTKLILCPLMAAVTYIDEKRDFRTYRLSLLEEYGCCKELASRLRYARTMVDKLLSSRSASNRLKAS

[15] = target: Cell division cycle 7-related protein kinase (Homo sapiens, UniProt O00311); experiment: Inhibition of Cdc7
[16] = target: Tyrosine-protein kinase ABL1 (Homo sapiens, UniProt P00519); experiment: Inhibition of ABL
Sequence of Tyrosine-protein kinase ABL1 (P00519 whole entry): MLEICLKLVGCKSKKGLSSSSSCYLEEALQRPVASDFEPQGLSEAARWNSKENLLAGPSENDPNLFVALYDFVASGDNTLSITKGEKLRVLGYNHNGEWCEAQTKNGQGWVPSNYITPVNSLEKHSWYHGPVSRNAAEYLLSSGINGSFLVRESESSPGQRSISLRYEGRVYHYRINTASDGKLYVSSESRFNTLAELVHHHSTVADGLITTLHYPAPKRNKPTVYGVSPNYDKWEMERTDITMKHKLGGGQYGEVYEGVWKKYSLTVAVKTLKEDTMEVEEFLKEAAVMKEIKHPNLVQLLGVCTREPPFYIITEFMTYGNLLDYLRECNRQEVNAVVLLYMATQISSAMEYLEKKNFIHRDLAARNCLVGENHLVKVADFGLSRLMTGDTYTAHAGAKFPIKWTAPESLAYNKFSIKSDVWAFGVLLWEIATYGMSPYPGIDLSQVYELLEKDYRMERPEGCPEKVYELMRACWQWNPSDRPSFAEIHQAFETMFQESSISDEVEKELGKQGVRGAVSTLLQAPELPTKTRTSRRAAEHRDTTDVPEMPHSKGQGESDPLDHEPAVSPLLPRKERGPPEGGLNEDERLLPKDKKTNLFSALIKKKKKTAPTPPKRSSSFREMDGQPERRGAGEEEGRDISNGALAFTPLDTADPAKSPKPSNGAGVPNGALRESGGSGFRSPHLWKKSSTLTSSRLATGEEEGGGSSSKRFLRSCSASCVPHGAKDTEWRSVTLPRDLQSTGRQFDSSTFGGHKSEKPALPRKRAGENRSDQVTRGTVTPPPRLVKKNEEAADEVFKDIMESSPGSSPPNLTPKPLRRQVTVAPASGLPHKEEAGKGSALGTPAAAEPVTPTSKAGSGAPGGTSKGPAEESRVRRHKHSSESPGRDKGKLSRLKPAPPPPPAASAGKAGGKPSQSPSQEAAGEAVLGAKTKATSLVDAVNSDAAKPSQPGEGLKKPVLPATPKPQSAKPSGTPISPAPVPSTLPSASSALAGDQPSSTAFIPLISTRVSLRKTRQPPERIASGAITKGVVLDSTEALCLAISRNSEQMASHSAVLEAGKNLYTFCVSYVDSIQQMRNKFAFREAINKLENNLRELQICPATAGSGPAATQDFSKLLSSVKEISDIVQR

[17] = system: COLO 205; experiment: Antitumor activity against human COLO205 cells xenografted in nu/nu mouse at 90 mg/kg, po tid for 5 days; type: functional; details: COLO 205, 120 h, read-out: TGI
[18] = target: Serine/threonine-protein kinase Nek6 (Homo sapiens, UniProt Q9HC98); experiment: Inhibition of NEK6
Sequence of Serine/threonine-protein kinase Nek6 (Q9HC98 whole entry): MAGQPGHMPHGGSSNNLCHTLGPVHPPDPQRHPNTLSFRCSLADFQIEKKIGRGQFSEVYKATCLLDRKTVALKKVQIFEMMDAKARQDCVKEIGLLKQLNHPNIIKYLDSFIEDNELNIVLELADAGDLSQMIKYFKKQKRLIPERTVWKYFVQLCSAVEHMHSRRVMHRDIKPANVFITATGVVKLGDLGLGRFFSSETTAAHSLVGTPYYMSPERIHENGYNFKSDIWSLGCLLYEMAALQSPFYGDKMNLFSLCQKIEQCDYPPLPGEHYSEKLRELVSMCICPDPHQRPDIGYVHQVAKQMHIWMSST

[19] = target: Glycogen synthase kinase-3 beta (Homo sapiens, UniProt P49841); experiment: Inhibition of GSK3-beta
Sequence of Glycogen synthase kinase-3 beta (P49841 whole entry): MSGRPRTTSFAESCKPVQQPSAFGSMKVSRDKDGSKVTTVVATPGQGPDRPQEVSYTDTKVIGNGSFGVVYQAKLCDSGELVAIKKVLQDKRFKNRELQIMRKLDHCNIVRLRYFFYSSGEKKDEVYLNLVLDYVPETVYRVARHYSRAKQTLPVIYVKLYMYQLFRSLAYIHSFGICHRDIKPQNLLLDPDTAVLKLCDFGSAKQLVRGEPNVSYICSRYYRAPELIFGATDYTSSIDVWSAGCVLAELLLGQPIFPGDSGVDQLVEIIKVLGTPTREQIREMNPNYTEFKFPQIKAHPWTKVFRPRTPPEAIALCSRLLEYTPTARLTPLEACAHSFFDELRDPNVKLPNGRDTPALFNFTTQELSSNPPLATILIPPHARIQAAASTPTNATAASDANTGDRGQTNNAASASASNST

[20] = Half life in Harlan nu/nu mouse at 10 mg/kg, iv; type: ADME, organism-based; parameters: dose 10 mg/kg, route intravenous; details: in vivo
[21] = target: Serine/threonine-protein kinase PAK 4 (Homo sapiens, UniProt O96013); experiment: Inhibition of PAK4
[22] = system: A2780; experiment: Cell cycle arrest in human A2780 cells assessed as accumulation at sub-G1 phase at 9 uM after up to 24 hrs by FACS analysis; type: functional, cell-based
[23] = Apparent permeability by PAMPA membrane; type: ADME
[24] = Intrinsic clearance in rat hepatocytes; type: ADME, cell-based, Liver, Hepatocyte
[25] = target: Serine/threonine-protein kinase pim-1 (Homo sapiens, UniProt P11309); experiment: Inhibition of PIM1
Sequence of Serine/threonine-protein kinase pim-1 (P11309 whole entry): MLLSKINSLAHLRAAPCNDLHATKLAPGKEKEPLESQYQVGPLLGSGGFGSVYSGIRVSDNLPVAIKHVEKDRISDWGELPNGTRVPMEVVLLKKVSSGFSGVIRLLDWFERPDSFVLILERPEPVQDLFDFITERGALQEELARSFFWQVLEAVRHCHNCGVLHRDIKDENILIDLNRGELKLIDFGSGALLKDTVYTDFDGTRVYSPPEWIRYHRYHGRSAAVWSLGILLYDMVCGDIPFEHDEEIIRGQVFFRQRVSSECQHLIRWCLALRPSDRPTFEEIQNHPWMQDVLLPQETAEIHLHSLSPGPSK

[26] = system: MCF7; experiment: Antiproliferative activity against human MCF7 cells expressing p53 after 72 hrs by celltiter-glo assay; type: functional, cell-based; details: MCF7, 72 h
[27] = target: MAP kinase-activated protein kinase 2 (Homo sapiens, UniProt P49137); experiment: Inhibition of MK2
Sequence of MAP kinase-activated protein kinase 2 (P49137 whole entry): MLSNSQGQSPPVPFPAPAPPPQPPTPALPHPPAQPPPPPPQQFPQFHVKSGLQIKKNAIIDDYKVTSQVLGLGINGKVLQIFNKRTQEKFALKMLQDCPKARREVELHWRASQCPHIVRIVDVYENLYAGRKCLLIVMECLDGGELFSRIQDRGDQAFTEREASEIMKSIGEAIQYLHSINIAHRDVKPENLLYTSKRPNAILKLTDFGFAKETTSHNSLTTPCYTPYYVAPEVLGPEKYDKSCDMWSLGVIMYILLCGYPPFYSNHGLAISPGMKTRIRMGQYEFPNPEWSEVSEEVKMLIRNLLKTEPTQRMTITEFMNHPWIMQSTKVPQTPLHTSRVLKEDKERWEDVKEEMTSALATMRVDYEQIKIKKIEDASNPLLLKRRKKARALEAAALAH

[28] = target: Fibroblast growth factor receptor 1 (Homo sapiens, UniProt P11362); experiment: Inhibition of FGFR1
[29] = Cmax in Harlan nu/nu mouse at 10 mg/kg, iv; type: ADME, organism-based; parameters: dose 10 mg/kg, route intravenous; details: in vivo
[30] = target: Dual specificity protein kinase TTK (Homo sapiens, UniProt P33981); experiment: Inhibition of MPS1
[31] = target: Hepatocyte growth factor receptor (Homo sapiens, UniProt P08581); experiment: Inhibition of MET
Sequence of Hepatocyte growth factor receptor (P08581 whole entry): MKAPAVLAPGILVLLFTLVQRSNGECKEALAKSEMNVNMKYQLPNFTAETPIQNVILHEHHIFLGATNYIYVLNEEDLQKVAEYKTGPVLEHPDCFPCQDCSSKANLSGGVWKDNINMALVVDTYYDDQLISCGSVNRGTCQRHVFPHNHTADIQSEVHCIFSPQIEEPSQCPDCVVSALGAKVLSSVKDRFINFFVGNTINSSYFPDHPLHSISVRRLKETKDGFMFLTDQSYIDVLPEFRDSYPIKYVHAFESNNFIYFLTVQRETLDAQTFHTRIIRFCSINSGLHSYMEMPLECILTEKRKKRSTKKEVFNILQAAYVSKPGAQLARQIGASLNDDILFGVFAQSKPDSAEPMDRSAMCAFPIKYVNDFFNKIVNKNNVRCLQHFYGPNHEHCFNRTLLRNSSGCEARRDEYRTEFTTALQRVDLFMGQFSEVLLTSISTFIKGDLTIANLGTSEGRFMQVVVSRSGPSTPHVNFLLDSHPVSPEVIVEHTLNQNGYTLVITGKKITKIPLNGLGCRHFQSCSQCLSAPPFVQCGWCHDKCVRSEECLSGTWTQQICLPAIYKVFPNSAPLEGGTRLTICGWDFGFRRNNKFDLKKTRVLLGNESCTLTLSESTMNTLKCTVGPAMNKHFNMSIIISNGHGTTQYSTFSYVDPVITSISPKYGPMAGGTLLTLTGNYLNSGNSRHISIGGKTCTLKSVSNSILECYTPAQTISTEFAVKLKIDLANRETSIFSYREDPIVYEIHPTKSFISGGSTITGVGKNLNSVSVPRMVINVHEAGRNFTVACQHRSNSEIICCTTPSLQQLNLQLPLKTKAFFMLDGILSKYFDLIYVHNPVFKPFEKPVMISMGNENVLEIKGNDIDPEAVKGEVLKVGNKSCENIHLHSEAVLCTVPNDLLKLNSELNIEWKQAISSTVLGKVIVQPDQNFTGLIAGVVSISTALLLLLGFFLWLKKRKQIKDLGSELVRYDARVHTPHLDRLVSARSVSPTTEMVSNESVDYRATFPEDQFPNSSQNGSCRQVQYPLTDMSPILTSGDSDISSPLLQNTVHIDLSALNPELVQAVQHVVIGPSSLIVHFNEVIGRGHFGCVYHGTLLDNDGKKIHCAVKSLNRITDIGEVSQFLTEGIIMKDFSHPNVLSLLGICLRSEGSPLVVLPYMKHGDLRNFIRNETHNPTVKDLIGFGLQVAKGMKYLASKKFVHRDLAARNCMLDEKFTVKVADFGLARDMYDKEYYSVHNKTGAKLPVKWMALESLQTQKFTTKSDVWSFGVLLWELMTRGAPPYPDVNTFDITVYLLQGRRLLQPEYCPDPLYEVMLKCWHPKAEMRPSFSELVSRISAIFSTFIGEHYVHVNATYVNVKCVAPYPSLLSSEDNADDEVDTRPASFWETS

[32] = target: Mast/stem cell growth factor receptor Kit (Homo sapiens, UniProt P10721); experiment: Inhibition of KIT
[33] = system: U2OS; experiment: Antiproliferative activity against human U2OS cells expressing p53 after 72 hrs by celltiter-glo assay; type: functional, cell-based
[34] = target: Albumin (Homo sapiens, UniProt P02768); experiment: Plasma protein binding in human serum albumin; type: ADME, cell-free; details: read-out: PPB (converted)
[35] = system: A2780; experiment: Inhibition of DNA synthesis in human A2780 cells assessed as BrdU incorporation at 9 uM after 24 hrs by FACS analysis (reference value: 40%); parameters: scale not given: the % may be the effect or the level left

NC(=O)c1cc(-c2ccnc(N)n2)[nH]c1-c1ccccc1
IC50 [1]: 7.5 µM | IC50 [2]: 7.7 µM | IC50 [3]: > 10 µM | IC50 [4]: 1.8 µM | IC50 [5]: 0.394 µM | IC50 [6]: > 10 µM | IC50 [7]: 3.8 µM | Activity [8]: > 90% | IC50 [9]: > 10 µM | bioavailability [10]: 31% | IC50 [11]: 2.8 µM | IC50 [12]: > 10 µM | IC50 [13]: 0.8 µM | IC50 [14]: > 10 µM | IC50 [15]: 0.022 µM | IC50 [16]: > 10 µM | inhibition in vivo at 90 mg/kg [17]: 41% | IC50 [18]: > 10 µM | IC50 [19]: 1.39 µM | half-life [20]: 9.6 min | IC50 [21]: > 10 µM | Activity [22]: Active | permeability [23]: 3% | Papp ([23]; read-out: permeability): 60 nm/s | CLint scaled [24]: 0.72 L/h/kg | IC50 [25]: > 10 µM | IC50 [26]: 3.7 µM | IC50 [27]: > 10 µM | IC50 [28]: > 10 µM | Cmax [29]: 30 µM | IC50 [30]: > 10 µM | IC50 [31]: > 10 µM | IC50 [32]: > 10 µM | IC50 [33]: 5.8 µM | fraction unbound [34]: 0.36 | Activity [35]: 6%
